Measurements reported in US20190336610A1, “GLUCOSE-SENSITIVE PEPTIDE HORMONES” (GUBRA APS, priority 2016, published 2019).

Experiments:
[1] = In vitro glucose sensing at different glucose concentration (UPLC-MS, formation of linker-glucose); assay type: physicochemical; details: 0.42 mM linker, PBS pH 7.4, 37° C.
Method: The aim with the example is to evaluate the reaction rate of three different linkers at various glucose concentrations i.e. their ability to hydrolyse and react with glucose to form a linker glucose conjugate.
1.4 mg of linker 1 ((E)-N′-(3-(benzyloxy)propylidene)-4-methoxybenzohydrazide) was dissolved in 100 μL DMSO. 10 μL of the DMSO stock solution was added to 990 μL 1×PBS buffer pH 7.4, containing 1000 or 5000 equiv glucose, to give a final concentration of 0.42 mM of linker 1. The solutions were heated to 37° C. and analysed at different time points from 0 to 48 h by UPLC-MS (C18 column, acetonitrile/water/formic acid). The linker-glucose compound was analysed as percentage of the full conversion of the reaction.
1.3 mg and 1.4 mg of linker 14 ((E)-N′-(2-(benzyloxy)ethylidene)-4-methoxybenzohydrazide) and linker 15 ((E)-N′-(2-(benzyloxy)ethylidene)-2-hydroxy-4-methoxybenzohydrazide), respectively, was dissolved in 100 μL DMSO. 10 μL of each stock solution was added to 990 μL 1×PBS buffer pH 7.4 containing 1000, 5000 or 10,000 equiv glucose, to give a final linker concentration of 0.42 mM. The solutions were heated to 37° C. and analysed at different time points from 0 to 72 h by UPLC-MS (C18 column, acetonitrile/water/formic acid). The linker-glucose compounds were analysed as percentage of the full conversion of the reaction.

[2] = In vitro glucose sensing evaluation (LC-MS): reactivity of each linker towards glucose; assay type: physicochemical; details: phosphate buffer pH 7, 1000 equiv glucose, 37° C.
Method: The aim with this example is to evaluate the reactivity of each linker towards glucose.
1-1.5 mg of linker was dissolved in 100 μL DMSO. Immediately after solvation, 5 μL was added to 995 μL phosphate buffer pH 7 containing 1000 equiv glucose. The mixture was heated to 37° C. and analysed continuously by LC-MS

lean rats = assay: In vivo scITT in lean rats; details: s.c., 5 U insulin-C18 or 0.5 U human insulin

## COc1ccc(C(=O)N/N=C/CCOCc2ccccc2)cc1 [Linker 1, (E)-N′-(3-(benzyloxy)propylidene)-4-methoxybenzohydrazide]
[1]; 1000 equiv glucose, 0 h
  % linker-glucose: 0%
[1]; 1000 equiv glucose, 1.5 h
  % linker-glucose: 3%
[1]; 1000 equiv glucose, 2 h
  % linker-glucose: 3%
[1]; 1000 equiv glucose, 3 h
  % linker-glucose: 5%
[1]; 1000 equiv glucose, 3.17 h
  % linker-glucose: 4%
[1]; 1000 equiv glucose, 3.5 h
  % linker-glucose: 4%
[1]; 1000 equiv glucose, 3.75 h
  % linker-glucose: 4%
[1]; 1000 equiv glucose, 4 h
  % linker-glucose: 5%
[1]; 1000 equiv glucose, 4.5 h
  % linker-glucose: 6%
[1]; 1000 equiv glucose, 4.75 h
  % linker-glucose: 6%
[1]; 1000 equiv glucose, 5 h
  % linker-glucose: 6%
[1]; 1000 equiv glucose, 5.5 h
  % linker-glucose: 6%
[1]; 1000 equiv glucose, 6 h
  % linker-glucose: 9%
[1]; 1000 equiv glucose, 7 h
  % linker-glucose: 9%
[1]; 1000 equiv glucose, 24 h
  % linker-glucose: 29%
[1]; 1000 equiv glucose, 48 h
  % linker-glucose: 70%
[1]; 5000 equiv glucose, 0 h
  % linker-glucose: 0%
[1]; 5000 equiv glucose, 0.75 h
  % linker-glucose: 3%
[1]; 5000 equiv glucose, 1 h
  % linker-glucose: 6%
[1]; 5000 equiv glucose, 1.25 h
  % linker-glucose: 7%
[1]; 5000 equiv glucose, 1.5 h
  % linker-glucose: 10%
[1]; 5000 equiv glucose, 1.75 h
  % linker-glucose: 10%
[1]; 5000 equiv glucose, 2 h
  % linker-glucose: 14%
[1]; 5000 equiv glucose, 2.5 h
  % linker-glucose: 18%
[1]; 5000 equiv glucose, 7 h
  % linker-glucose: 49%

## COc1ccc(C(=O)N/N=C/COCc2ccccc2)cc1 [Linker 14, (E)-N′-(2-(benzyloxy)ethylidene)-4-methoxybenzohydrazide]
[1]; 1000 equiv glucose, 0 h
  % linker-glucose: 0%
[1]; 1000 equiv glucose, 24 h
  % linker-glucose: 7%
[1]; 1000 equiv glucose, 54 h
  % linker-glucose: 11%
[1]; 1000 equiv glucose, 72 h
  % linker-glucose: 17%
[1]; 5000 equiv glucose, 0 h
  % linker-glucose: 0%
[1]; 5000 equiv glucose, 24 h
  % linker-glucose: 16%
[1]; 5000 equiv glucose, 54 h
  % linker-glucose: 30%
[1]; 5000 equiv glucose, 72 h
  % linker-glucose: 50%
[1]; 10,000 equiv glucose, 0 h
  % linker-glucose: 0%
[1]; 10,000 equiv glucose, 6 h
  % linker-glucose: 3%
[1]; 10,000 equiv glucose, 24 h
  % linker-glucose: 39%
[1]; 10,000 equiv glucose, 54 h
  % linker-glucose: 62%
[1]; 10,000 equiv glucose, 72 h
  % linker-glucose: 87%

## COc1ccc(C(=O)N/N=C/COCc2ccccc2)c(O)c1 [Linker 15, (E)-N′-(2-(benzyloxy)ethylidene)-2-hydroxy-4-methoxybenzohydrazide]
[2]
  Linker-glucose observed: ≤ 5 h
[1]; 1000 equiv glucose, 0 h
  % linker-glucose: 0%
[1]; 1000 equiv glucose, 2 h
  % linker-glucose: 1%
[1]; 1000 equiv glucose, 4 h
  % linker-glucose: 3%
[1]; 1000 equiv glucose, 6 h
  % linker-glucose: 5%
[1]; 1000 equiv glucose, 24 h
  % linker-glucose: 21%
[1]; 1000 equiv glucose, 48 h
  % linker-glucose: 35%
[1]; 5000 equiv glucose, 0 h
  % linker-glucose: 0%
[1]; 5000 equiv glucose, 1 h
  % linker-glucose: 2%
[1]; 5000 equiv glucose, 2 h
  % linker-glucose: 6%
[1]; 5000 equiv glucose, 4 h
  % linker-glucose: 12%
[1]; 5000 equiv glucose, 6 h
  % linker-glucose: 21%
[1]; 5000 equiv glucose, 24 h
  % linker-glucose: 68%
[1]; 5000 equiv glucose, 48 h
  % linker-glucose: 98%
[1]; 10,000 equiv glucose, 0 h
  % linker-glucose: 0%
[1]; 10,000 equiv glucose, 1 h
  % linker-glucose: 9%
[1]; 10,000 equiv glucose, 2 h
  % linker-glucose: 15%
[1]; 10,000 equiv glucose, 4 h
  % linker-glucose: 33%
[1]; 10,000 equiv glucose, 6 h
  % linker-glucose: 44%
[1]; 10,000 equiv glucose, 24 h
  % linker-glucose: 89%
[1]; 10,000 equiv glucose, 48 h
  % linker-glucose: 99%

## Human insulin: human insulin, the unmodified peptide hormone used as comparator
Lean rats; 0 min (before)
  Blood glucose % of vehicle (±SEM): 95 ± 3%
Lean rats; 60 min
  Blood glucose % of vehicle (±SEM): 64 ± 4%
Lean rats; 120 min
  Blood glucose % of vehicle (±SEM): 55 ± 6%
Lean rats; 180 min
  Blood glucose % of vehicle (±SEM): 66 ± 7%
Lean rats; 240 min
  Blood glucose % of vehicle (±SEM): 76 ± 4%
Lean rats; 300 min
  Blood glucose % of vehicle (±SEM): 76 ± 4%
